Experimental data: US20220133767A1, “TARGETING MICRORNAS TO OVERCOME DRUG TOLERANCE AND RESISTANCE” (Beth Israel Deaconess Medical Center, Inc., priority 2019, published 2022)
Entries after “also recorded” stand apart in the source; their conditions may differ.

How the values were obtained:
[1] = test system: HCC827 cells
Method: (§1) Compound Treatment. Cell viability experiments were performed in 96-well format using opaque white plates (Corning). For 2D monolayer cell cultures and organoids, cells were plated into 96-well plates with 100-2000 cells per well in three-four replicates on day 0. Twenty-four hours after seeding, cells or organoids were exposed to compounds at indicated concentrations for 72 hours. Cellular ATP levels (as a surrogate for viability) were measured using CeliTiter-Glo (Cat #G7570, Promega) or CeliTiter-Glo 3D (Cat #G9681, Promega). For co-treatment experiments, spent medium was removed 24 hours after cell seeding and replaced with medium containing a single concentration of the modulator of interest (for example, osimertinib).
(§2) Lentiviral-mediated miRNA and VHL Overexpression or Knockdown Infection.

[2] = test system: PDX_LU_10 organoids; assay: Pretreatment response on lung PDX organoids (organoid size); type: cell-based, human
Text: Patient-derived Xenograft Tumor Specimens. Tumor samples from patient-derived xenografts (PDXs) were generated at The Jackson Laboratory and the Yale Cancer Center by subcutaneous implantation of previously passaged tumors in up to 5 female NSG mice. When tumor samples reached 1000 mm^3 they were shipped to the laboratory in frozen media of DMEM with 90% FBS and 10% DMSO in dry ice. Samples were washed with cold phosphate buffer saline (PBS) with antibiotics (Sigma-Aldrich, St. Louis, Mo.) three times, chopped with a sterile blade, and incubated in 0.001% deoxyribonuclease (DNase) (Sigma-Aldrich, St. Louis, Mo.), 1 mg/ml collagenase/dispase (Roche, Indianapolis, Ind.), 200 U/ml penicillin, 200 μg/ml streptomycin, 0.5 μg/ml amphotericin B (2% antibiotics, Sigma) in DMEM/F12 medium (GIBCO, Grandlsland, N.Y.) at 37° C. water bath for 3 hours with intermittent shaking. After incubation, the suspensions were repeatedly triturated, passed through 70 μm and 40 μm cell-strainers (BD Falcon, San Jose, Calif.), and centrifuged at 122 g for 5 minutes at 4° C. Cells were resuspended in red blood cell lysis buffer (eBioscience, San Diego, Calif.) for 4 minutes at room temperature with intermittent shaking, before resuspension in serum-free medium. After lysis, cell viability was evaluated by trypan blue dye exclusion.
(§3) The plate was incubated for 20 minutes at 37° C. followed by adding 100 μl complete growth media. […] The media was changed every three days in 24 days. The organoids were photographed with a microscope (Evos Fla., Life Technology) and their size was measured by ImageJ.
Transfection by LNAs in vitro. Tumor cells were plated at 2,000 cells in complete growth medium in a 96 well plate to reach 50-60% confluence. […] The transfected cells were harvested after culturing for 48 and 72 hours.

[3] = test system: H1975 organoids; assay: Organoid number after lentiviral miR-147b inhibition and/or osimertinib; type: cell-based, human
Method: as §3, §2

[4] = test system: H1975 cells; assay: Cell viability of H1975 cells with HIF1A or EPAS1 knockdown or HIF1A A588T treated with osimertinib; type: cell-based, human; settings: 3 days
Method: HIF1A and EPAS1 shRNAs and cDNA transfection. H1975 cells were seeded in a 6-well plate at 100,000 cells per well one day prior to transfection. A mixture of 2.5 μg pGFP-C-shLenti vector targeting HIF1A (OrGene, Cat #320380), EPAS1 (OriGene, Cat #TL315484), scrambled negative control (Cat #TR30021), lentiviral vector targeting HIF1A mutantA588T (OrGene, Cat #RC402571), control vector and 7.5 μL of PureFection (System Biosciences, Cat #LV750A-1) were used for transfection. The transfected cells were selected and maintained in 0.5 μg/ml puromycin (for shRNAs) or 600 μg/ml neomycin (for HIF1A A5887) in DMEM containing with 10% FBS for 9 days. Then the stable cells were passaged into 96-well plate at 3,000 cells per well followed by treatment with 100 nM osimertinib for 3 days. hsa-HIF1A targeting sequences: shRNA 1: […] (SEQ ID NO: 892), shRNA 2: […] (SEQ ID NO: 893), shRNA 3: […] (SEQ ID NO: 894), shRNA 4: […] (SEQ ID NO: 895). hsa-EPAS1 targeting sequences: shRNA 1: […] (SEQ ID NO: 896), shRNA 2: […] (SEQ ID NO: 897), shRNA 3: […] (SEQ ID NO: 898), shRNA 4: […] (SEQ ID NO: 899).

[5] = test system: H1975 organoids; assay: Osimertinib treatment response (cell viability) on H1975 organoids transfected with LNA miR-147b inhibitor; type: cell-based, human; settings: 120 nM LNA miR-147b inhibitor
Method: (§4) For 3D organoid formation, single-cell suspensions (2000 cells/well/20 μl) were co-plated with geltrex (25 μl) in 96-well non-treated clear plates (Corning, cat #08-772-53). The plate was incubated for 20 minutes at 37° C. followed by adding 100 μl complete growth media. The complete growth media was advanced DMEM/F12 with glutamax (1×), HEPES (1×), 1.25 mM N-Acetylcysteine, 10 mM Nicotinamide, 10 μM Forskolin, B27 (1×), 5 ng/ml Noggin, 100 ng/ml FGF10, 20 ng/ml FGF2, 50 ng/ml EGF, 10 ng/ml PDGFA, 10 ng/ml FGF7, 1% penicillin-streptomycin, and 10 μM Y-27632. Y-27632 was used only for the initial three days because Y27632 is a rock inhibitor preventing apoptosis of single cells (Watanabe et al., Nat. Biotechnol. 25(6):681-686, 2007). PDGFA and FGF7 were not used until day 7 in organoid cultures because they are important for alveolarization during late lung development (Padela et al., Pediatr. Res. 63(3):232-8, 2008; Bostrom et al., Cell 85(6):863-873, 1996). FGF10 is essential for maintenance of lung progenitor cells and branching morphogenesis as well as tissue homeostasis in the adult lung (Sekine et al., Nat. Genet. 21(1):138-141, 1999). […] The organoids were photographed with a microscope (Evos Fla., Life Technology) and their size was measured by ImageJ. […]

[6] = test system: pseudohypoxia genes in H1975 cells; assay: qRT-PCR analysis of hypoxia (pseudohypoxia) gene expression; type: cell-based, human
Method: Transfection by LNAs in vitro. Tumor cells were plated at 2,000 cells in complete growth medium in a 96 well plate to reach 50-60% confluence. 0˜120 nM of fluorescein-conjugated LNA anti-miR-147b (Sequence: […]; SEQ ID NO: 890) (Cat #4100977-011) or negative control (Sequence: TAACACGTCTATACGCCCA; SEQ ID NO: 891) (Cat #199006-011, Exiqon) with PureFection (System Biosciences) were applied for transfection. The transfected cells were harvested after culturing for 48 and 72 hours.

[7] = test system: H1975 organoids; assay: Fractional viability of H1975 organoids treated with osimertinib, LNA miR-147b inhibitor, DMOG, R59949 or combinations for 14 days; type: cell-based, human
Method: as §4

[8] = test system: H1975 cells; assay: Cell viability of osimertinib-treated H1975 cells co-incubated with SDH inhibitor dimethyl malonate; type: cell-based, human; settings: 100 nM osimertinib co-incubated with 0, 0.03, 0.1 mM DMM for 3 days
Method: as §1

[9] = test system: PC9 cells; assay: Single cell clonogenicity / frequency of drug-tolerant clones; settings: 0.1, 0.4 and 2 μM gefitinib (all three groups), 14 days, vehicle 8.3%±0.7%

C=CC(=O)Nc1cc(Nc2nccc(-c3cn(C)c4ccccc34)n2)c(OC)cc1N(C)CCN(C)C [osimertinib]
enhancement of drug-tolerance at the half-maximum inhibitory concentration (IC50) by enforced overexpression of miR-147b [1]: 60 fold
decrease of size of the tumor organoids ([2]; 25 nM osimertinib on day 1 and 4, day 6): 50%
increase (recovery) of organoid size ([2]; 25 nM osimertinib on day 1 and 4, day 14): 40%
decrease of total number of organoids compared with the control group [3]: two-fold
increase of drug-tolerance towards osimertinib upon overexpression of HIF1A A588T ([4]; 100 nM osimertinib): up to two-fold
increase of cell sensitivity towards osimertinib upon HIF1A knockdown ([4]; lentiviral shRNAs against HIF1A, 100 nM osimertinib): up to 2.6 fold
drug sensitivity towards osimertinib upon HIF2A knockdown ([4]; lentiviral shRNAs against HIF2A/EPAS1, 100 nM osimertinib): did not change

LNA miR-147b inhibitor: fluorescein-conjugated LNA anti-miR-147b, sequence AGCAGAAGCATTTCCGCACA (SEQ ID NO: 890), Cat #4100977-011 (LNA-modified, fluorescein conjugated, pattern and position not given here)
decrease of IC50 for osimertinib / increase of sensitivity of drug-tolerant organoids to osimertinib, compared to scrambled control [5]: 30 fold
decrease of osimertinib-tolerance compared with control cells ([2]; 90 nM LNA miR-147b inhibitor on day 0 and day 2 + 25 nM osimertinib, day 8): 80%
PDX organoids volume increase, as % of that in control cells with the single agent of osimertinib ([2]; LNA miR-147b inhibitor pretreatment + osimertinib, day 8 to day 14): no more than 10%
expression levels of pseudohypoxia genes ([6]; H1975 cells, 90 nM LNA miR-147b inhibitor, three days, vs scrambled control): reduced expression levels
osimertinib-tolerance (fractional viability) ([7]; osimertinib 25 nM + LNA-anti147b 90 nM): reduced osimertinib-tolerance

O=c1c2ccccc2[nH]c(=S)n1CCN1CCC(=C(c2ccc(F)cc2)c2ccc(F)cc2)CC1 [R59949]
pseudohypoxia gene levels reduced by LNA-miR-147b inhibitor, on co-treatment with R59949 ([6]; H1975 cells, 90 nM LNA miR-147b inhibitor + 30 μM R59949, three days): further inhibited
expression of pseudohypoxia genes ([6]; H1975 cells, single dose of 30 μM R59949 vs vehicle): downregulation

COC(=O)CC(=O)OC [DMM, dimethyl malonate]
drug-tolerance to osimertinib (cell viability) [8]: promotes drug-tolerance; also recorded: effectively rescued

COc1cc2ncnc(Nc3ccc(F)c(Cl)c3)c2cc1OCCCN1CCOCC1 [gefitinib]
frequency of colony formation [9]: 3.6%±0.3

COC(=O)CNC(=O)C(=O)OC [DMOG, dimethyloxaloylglycine]
pseudohypoxia gene levels reduced by miR-147b knockdown, on co-treatment with DMOG ([6]; H1975, 90 nM LNA miR-147b inhibitor + 10 μM DMOG): rescued significantly
expression of pseudohypoxia genes ([6]; H1975, single dose of 10 μM DMOG vs vehicle): upregulated expression
osimertinib-tolerance (fractional viability) on co-treatment with DMOG ([7]; osimertinib 25 nM, LNA-anti147b 90 nM, DMOG 10 μM): rescued reduced osimertinib-tolerance
